From patent publication US11266692B2, “Intracellular genomic transplant and methods of therapy” (Regents of the University of Minnesota, priority 2015, dated 2022)

Legend:
Experiment in all cases: Validation of gRNAs: Cas9/gRNA plasmids in HEK293T, Surveyor digest, gel densitometry
Assay type in all cases: cell-based, human
CCR5 = CCR5 gene site, 3 days
Protocol: (§1) HEK293T cells were plated out at a density of 1×10^5 cells per well in a 24 well plate. 150 uL of Opti-MEM medium was combined with 1.5 ug of gRNA plasmid, 1.5 ug of Cas9 plasmid. Another 150 uL of Opti-MEM medium was combined with 5 ul of Lipofectamine 2000 Transfection reagent (Invitrogen). The solutions were combined together and incubated for 15 minutes at room temperature. The DNA-lipid complex was added dropwise to wells of the 24 well plate. Cells were incubated for 3 days at 37° C. and genomic DNA was collected using the GeneJET Genomic DNA Purification Kit (Thermo Scientific). Activity of the gRNAs was quantified by a Surveyor Digest, gel electrophoresis, and densitometry (FIG. 60 and FIG. 61) (Guschin, D. Y., et al., “A Rapid and General Assay for Monitoring Endogenous Gene Modification,” Methods in Molecular Biology, 649: 247-256 (2010)).
(§2) The efficiencies of Cas9 in creating double strand break (DSB) with the assistance of different gRNA sequences were listed in Table 7. The percentage numbers in Table 7 indicated the percent of gene modifications in the sample.

CTLA4 = CTLA4 gene site, 3 days
Protocol: as §1, §2

HPRT = HPRT gene site, 3 days
Protocol: as §1, §2

AAVS1 = AAVS1 gene site, 3 days
Protocol: as §1
(§3) The percentage numbers in Table 7 indicated the percent of gene modifications in the sample.

PD1 = PD1 gene site, 3 days
Protocol: as §1, §3

CCR5 gRNA#2: guide RNA to CCR5; sense primer SEQ ID 63 CACCGTCATCCTCCTGACAATCGAT
efficiency of Cas9/gRNA pair in creating double strand break (DSB), percent of gene modifications (CCR5): >60%

CTLA4 gRNA#5: guide RNA to CTLA4; sense primer SEQ ID 55 CACCGCCGCACAGACTTCAGTCACC
efficiency of Cas9/gRNA pair in creating double strand break (DSB), percent of gene modifications (CTLA4): 15.90%

HPRT gRNA#4: guide RNA to HPRT; sense primer SEQ ID 11 CACCGTAAATTTCTCTGATAGACTA
efficiency of Cas9/gRNA pair in creating double strand break (DSB), percent of gene modifications (HPRT): <5%

CCR5 gRNA#4: guide RNA to CCR5; sense primer SEQ ID 67 CACCGACACAGCATGGACGACAGCC
efficiency of Cas9/gRNA pair in creating double strand break (DSB), percent of gene modifications (CCR5): 45.99%

HPRT gRNA#5: guide RNA to HPRT; sense primer SEQ ID 13 CACCGTGTTTCAATGAGAGCATTAC
efficiency of Cas9/gRNA pair in creating double strand break (DSB), percent of gene modifications (HPRT): <1%

AAVS1 gRNA#6: guide RNA to AAVS1; sense primer SEQ ID 29 CACCGCGGGCCCCTATGTCCACTTC
efficiency of Cas9/gRNA pair in creating double strand break (DSB), percent of gene modifications (AAVS1): 39.62%

PD1 gRNA#1: guide RNA to PD-1; sense primer SEQ ID 33 CACCGCGGAGAGCTTCGTGCTAAAC
efficiency of Cas9/gRNA pair in creating double strand break (DSB), percent of gene modifications (PD1): 10.83%

PD1 gRNA#6: guide RNA to PD-1; sense primer SEQ ID 43 CACCGACGGAAGCGGCAGTCCTGGC
efficiency of Cas9/gRNA pair in creating double strand break (DSB), percent of gene modifications (PD1): 25.91%

PD1 gRNA#4: guide RNA to PD-1; sense primer SEQ ID 39 CACCGAGGCGGCCAGCTTGTCCGTC
efficiency of Cas9/gRNA pair in creating double strand break (DSB), percent of gene modifications (PD1): 20.87%

HPRT gRNA#3: guide RNA to HPRT; sense primer SEQ ID 9 CACCGACAAAAAAATTAGCCGGGTG
efficiency of Cas9/gRNA pair in creating double strand break (DSB), percent of gene modifications (HPRT): <1%

HPRT gRNA#6: guide RNA to HPRT; sense primer SEQ ID 15 CACCGGTCTCGAACTCCTGAGCTC
efficiency of Cas9/gRNA pair in creating double strand break (DSB), percent of gene modifications (HPRT): <5%

CCR5 gRNA#1: guide RNA to CCR5; sense primer SEQ ID 61 CACCGACAATGTGTCAACTCTTGAC
efficiency of Cas9/gRNA pair in creating double strand break (DSB), percent of gene modifications (CCR5): 21.47%

AAVS1 gRNA#1: guide RNA to AAVS1; sense primer SEQ ID 19 CACCGTGGGGGTTAGACCCAATATC
efficiency of Cas9/gRNA pair in creating double strand break (DSB), percent of gene modifications (AAVS1): 32.99%

PD1 gRNA#5: guide RNA to PD-1; sense primer SEQ ID 41 CACCGCGTTGGGCAGTTGTGTGACA
efficiency of Cas9/gRNA pair in creating double strand break (DSB), percent of gene modifications (PD1): 30.60%

CTLA4 gRNA#4: guide RNA to CTLA4; sense primer SEQ ID 53 CACCGAGGTTCACTTGATTTCCAC
efficiency of Cas9/gRNA pair in creating double strand break (DSB), percent of gene modifications (CTLA4): 40.13%

AAVS1 gRNA#2: guide RNA to AAVS1; sense primer SEQ ID 21 CACCGACCCCACAGTGGGGCCACTA
efficiency of Cas9/gRNA pair in creating double strand break (DSB), percent of gene modifications (AAVS1): 27.10%

CCR5 gRNA#6: guide RNA to CCR5; sense primer SEQ ID 71 CACCGTTGTATTTCCAAAGTCCCAC
efficiency of Cas9/gRNA pair in creating double strand break (DSB), percent of gene modifications (CCR5): 33.17%

CTLA4 gRNA#6: guide RNA to CTLA4; sense primer SEQ ID 57 CACCGCTGGCGATGCCTCGGCTGC
efficiency of Cas9/gRNA pair in creating double strand break (DSB), percent of gene modifications (CTLA4): 36.93%

AAVS1 gRNA#5: guide RNA to AAVS1; sense primer SEQ ID 27 CACCGCCGGCCCTGGGAATATAAGG
efficiency of Cas9/gRNA pair in creating double strand break (DSB), percent of gene modifications (AAVS1): 27.55%

CCR5 gRNA#5: guide RNA to CCR5; sense primer SEQ ID 69 CACCGATCTGGTAAAGATGATTCC
efficiency of Cas9/gRNA pair in creating double strand break (DSB), percent of gene modifications (CCR5): 36.07%

CTLA4 gRNA#1: guide RNA to CTLA4; sense primer SEQ ID 47 CACCGCCGGGTGACAGTGCTTCGGC
efficiency of Cas9/gRNA pair in creating double strand break (DSB), percent of gene modifications (CTLA4): 40.96%

HPRT gRNA#1: guide RNA to HPRT; sense primer SEQ ID 5 CACCGCACGTGTGAACCAACCCGCC
efficiency of Cas9/gRNA pair in creating double strand break (DSB), percent of gene modifications (HPRT): 27.85% ^

HPRT gRNA#2: guide RNA to HPRT; sense primer SEQ ID 7 CACCGAAACAACAGGCCGGGCGGGT
efficiency of Cas9/gRNA pair in creating double strand break (DSB), percent of gene modifications (HPRT): 30.04% ^

PD1 gRNA#2: guide RNA to PD-1; sense primer SEQ ID 35 CACCGCCTGCTCGTGGTGACCGAAG
efficiency of Cas9/gRNA pair in creating double strand break (DSB), percent of gene modifications (PD1): >60%

CCR5 gRNA#3: guide RNA to CCR5; sense primer SEQ ID 65 CACCGGTGACAAGTGTGATCACTT
efficiency of Cas9/gRNA pair in creating double strand break (DSB), percent of gene modifications (CCR5): 55.98%

CTLA4 gRNA#3: guide RNA to CTLA4; sense primer SEQ ID 51 CACCGCTAGATGATTCCATCTGCAC
efficiency of Cas9/gRNA pair in creating double strand break (DSB), percent of gene modifications (CTLA4): 39.33%

CTLA4 gRNA#2: guide RNA to CTLA4; sense primer SEQ ID 49 CACCGTGCGGCAACCTACATGATG
efficiency of Cas9/gRNA pair in creating double strand break (DSB), percent of gene modifications (CTLA4): 56.10%
